In patent US3983248A (priority 1971, dated 1976):
Counter-ions that a name gives are not always drawn.

Tests used:
[1] = system: Vaccinia IHD; assay type: in vivo, mice; details: Vaccinia IHD 24 ID50, subcutaneous in tail; lesion scored on 7th day; subcutaneous treatment 28, 22, 4 hrs. pre- and 2, 20, 26 hrs. post-challenge; 2 to 50 mg. per kg.
[2] = hygroscopicity; assay type: physicochemical; details: dihydrochloride salt
Protocol: Following the procedure of Example 1 and using anthraquinone-2,7-disulfonylchloride, the title compound was obtained. Since the dihydrochloride was hygroscopic, it was converted to the free base by stirring it in a 10% sodium carbonate solution and recrystallized from a mixture of ether and hexane, m.p. 93°-95°.

[3] = system: virus (Vaccinia IHD, Encephalomyocarditis, Influenza Ao (PR8), Influenza A/Equine (Prague), Mengo, Semliki Forest); assay type: in vivo, mice; details: prior art compound prepared and tested by applicants
[4] = toxicity comparison of prior art compound with the compounds of the invention; details: prior art compound prepared and tested by applicants
From the text: The closest prior art compound known to applicants is 1,5-bis[N-(4-diethylamino- 1-methylbutyl)sulfamoyl]-anthraquinone. The preparation of this compound is disclosed in I. Kh. Fel'dman, Z. Ovsyanaya, and E. Kozlov, Tr. Leningr. Khim.-Farmatsevt. Inst. 1960 (11), 48-53; CA 59: 11312.

For `CCCCN(CCCC)CCCNS(=O)(=O)c1ccc2c(c1)C(=O)c1cc(S(=O)(=O)NCCCN(CCCC)CCCC)ccc1C2=O` [Example 6, 2,7-Bis-[N-(3-dibutylaminopropyl)sulfamoyl]-anthraquinone], the “antiviral activity: lesions of treated animals compared to controls” value [1] was “fewer lesions”.

For `CCCCN(CCCC)CCCNS(=O)(=O)c1ccc2c(c1)C(=O)c1cc(S(=O)(=O)NCCCN(CCCC)CCCC)ccc1C2=O` [Example 3 dihydrochloride], the hygroscopicity [2] was “hygroscopic”.

In the case of `CCN(CC)CCCC(C)NS(=O)(=O)c1cccc2c1C(=O)c1cccc(S(=O)(=O)NC(C)CCCN(CC)CC)c1C2=O` (stereo not shown) [1,5-bis[N-(4-diethylamino-1-methylbutyl)sulfamoyl]-anthraquinone], the “activity in antiviral tests used with the compounds of this invention” value [3] is reported as “inactive” and the “toxicity relative to the compounds of this invention” value [4] is reported as “very much more toxic than the compounds of this invention”.
